Results published in the NIST ThermoML archive (doi:10.1021/je060002k).
± gives the expanded uncertainty stated by the source.

Details: Liquid

Structure (SMILES): CC(C)CC(C)(C)C [2,2,4-trimethylpentane]
- vapor or sublimation pressure (372.35 K): 101.33 ± 3 kPa

Structure (SMILES): CCO [ethanol]
- vapor or sublimation pressure (351.45 K): 101.33 ± 3 kPa

Structure (SMILES): CCCCCC [hexane]
- vapor or sublimation pressure (341.85 K): 101.33 ± 3 kPa

Structure (SMILES): Cc1ccccc1 [toluene]
- vapor or sublimation pressure (383.75 K): 101.33 ± 3 kPa
